Assay results published in patent publication US4701205A, “Chemical tobacco sucker control” (Chevron Research Company, priority 1986, dated 1987).
Where two headings read alike, the source gives them in different places.

Tests used:
[1] = test system: tobacco suckers (axillary buds), Var. Glurk; assay: Tobacco sucker control, spray to run-off on topped plants, Var. Glurk; format: in vivo, Nicotiana tabacum; conditions: for inhibition at 200 µg/mL / inhibition at 400 µg/mL / inhibition at 800 µg/mL / inhibition at 1600 µg/mL: Nicotiana tabacum; for Mean # of Nodes with Secondary Suckers / Mean Sucker Length (cm): Table 3
Description: In this example, the title compound of Example 1 (i.e., 2-[1-(3-trans-chloroallyloxyamino)ethylidene]-5-(2-ethylthiopropyl)cyclohexane-1,3-dione was tested side-by-side with 2-[1-(3-trans-chloroallyloxyamino)butylidene]-5-(2-ethylthio-propyl)-cyclohexane-1,3-dione for their ability to control (retard or prevent) lateral axillary buds in tobacco plants.
(§1) Twenty-four hours before treatment, the tobacco plants are "topped", removing the top 15 cm of the plant. Any plants which are tending to lean or bend in the pot were staked, and all pots labeled. Three to five replicates were used per treatment. A 5% wt. stock solution of each test compound dissolved in acetone containing a small amount of non-ionic emulsifier was prepared. The stock solution was appropriately diluted with deionized water containing 0.625 g of emulsifier per liter of water, to the desired spray solution concentration.
(§2) Plants were sprayed to point of run-off with a pressure atomizer, making sure that the stem, leaf axils, and leaves were all wet thoroughly with the solution. 30 to 35 ml of solution were used per plant. This was checked by recording volume of solution in sprayer reservoir before and after treatment. After spraying, the plants were incubated for 18 to 23 days in a greenhouse maintained at 70°-80° F. using standing water capilliary irrigation. The plants were uniformly fertilized once per week with a standard house plant fertilizer. After the incubation period, the plants were evaluated at various times for sucker control. […] The growth of secondary suckers (buds at lower nodes) when present, were also measured.
(§3) In some instances, comparisons were also made on the basis of sucker length.
(§4) The results are reported as an average of the replicates used in each test.
(§5) In this example, the title compound of Example 1 was tested side-by-side with maleic hydrazide ("C-2") with respect to axillary bud control in two varities of tobacco plants. These tests were conducted following the same general procedure as described in Example 3 hereinabove using the dosage concentrations given in the tables hereinbelow. […]

[2] = test system: tobacco suckers (axillary buds), Var. 12 × L8; assay: whole plant or invertebrate; format: in vivo, Nicotiana tabacum; conditions: for inhibition at 200 µg/mL / inhibition at 400 µg/mL / inhibition at 800 µg/mL: Nicotiana tabacum, read-out: Percent Bud Inhibition Top Two Nodes; for Mean # of Nodes with Secondary Suckers / Mean Sucker Length (cm): Table 3
Description: as §1, §2, §3, §4, §5

[3] = test system: tobacco suckers (axillary buds); assay: Tobacco sucker control, soil drench treatment; format: in vivo; conditions: for inhibition at 400 µg/mL: Nicotiana tabacum, read-out: Percent Bud Inhibition Top Three Nodes
Description: as §1
(§6) Plants were sprayed to point of run-off with a pressure atomizer, making sure that the stem, leaf axils, and leaves were all wet thoroughly with the solution. 30 to 35 ml of solution were used per plant. This was checked by recording volume of solution in sprayer reservoir before and after treatment. After spraying, the plants were incubated for 18 to 23 days in a greenhouse maintained at 70°-80° F. using standing water capilliary irrigation. The plants were uniformly fertilized once per week with a standard house plant fertilizer. After the incubation period, the plants were evaluated at various times for sucker control. To make this evaluation, the axillary buds at the top three nodes (primary suckers) of each plant were compared to those of the check, and a visual estimation of percent inhibition was made wherein 0=no inhibition of axillary buds as compared with check and 100=no axillary buds at top three nodes. The growth of secondary suckers (buds at lower nodes) when present, were also measured.
(§7) In this example, the title compound of Example 1 was tested side-by-side with maleic hydrazide for tobacco sucker control (inhibition), when applied as a soil drench and also when applied only to the leaves of the plant. The same general procedure as described in Example 3 was used with the exception that the test compound was applied only to the expanded leaves for foliage treatment (foliar paint) and the compound was drenched only on the soil in the pot for soil drench treatment. The average results of these tests are given in the following table, wherein 0=no inhibition and 100=complete inhibition, i.e., no axillary buds.

[4] = test system: tobacco suckers (axillary buds); assay: Tobacco sucker control, foliar paint (expanded leaves only); format: in vivo; conditions: for inhibition at 400 µg/mL: Nicotiana tabacum, read-out: Percent Bud Inhibition Top Three Nodes; for Sucker control when applied only to the leaves (systemic action), in words: applied only to the leaves of the tobacco plant
Description: as §1, §6, §7

[5] = 504 h, Table I, 400 mg/l spray, three weeks after treatment, read-out: Percent Bud Inhibition
[6] = 504 h, Table I, 800 mg/l spray, three weeks after treatment, read-out: Percent Bud Inhibition
[7] = 504 h, Table I, 1600 mg/l spray, three weeks after treatment, read-out: Percent Bud Inhibition
[8] = 1008 h, Table I, 400 mg/l spray, six weeks after treatment, read-out: Percent Bud Inhibition Top two Nodes
[9] = 1008 h, Table I, 800 mg/l spray, six weeks after treatment, read-out: Percent Bud Inhibition Top two Nodes
[10] = 1008 h, Table I, 1600 mg/l spray, six weeks after treatment, read-out: Percent Bud Inhibition Top two Nodes
[11] = 200 mg/l spray, six weeks after treatment
[12] = 400 mg/l spray, six weeks after treatment
[13] = 800 mg/l spray, six weeks after treatment
[14] = Table I, 400 mg/l spray, six weeks after treatment
[15] = Table I, 400 mg/l spray, three weeks after treatment
[16] = Table I, 800 mg/l spray, six weeks after treatment
[17] = Table I, 800 mg/l spray, three weeks after treatment
[18] = Table I, 1600 mg/l spray, six weeks after treatment
[19] = Table I, 1600 mg/l spray, three weeks after treatment
[20] = 504 h, read-out: Percent Bud Inhibition Top Two Nodes
[21] = 1008 h, read-out: Percent Bud Inhibition Top Two Nodes
[22] = Soil Drench, 400 mg/l, six weeks after treatment

CCSC(C)CC1CC(=O)C(=C(C)NOC/C=C/Cl)C(=O)C1 (stereo not drawn) [Compound 1, Trans-2-[1-(3-chloroallyloxyamino)-ethylidene]-5-(2-ethylthiopropyl)-cyclohexane-1,3-dione]
inhibition at 200 µg/mL ([1]; 504 h, Table 2, 200 mg/l spray, three weeks after treatment, read-out: Percent Bud Inhibition Top Two Nodes): 100%
inhibition at 400 µg/mL ([1]; 504 h, Table 2, 400 mg/l spray, three weeks after treatment, read-out: Percent Bud Inhibition Top Two Nodes): 100%
inhibition at 800 µg/mL ([1]; 504 h, Table 2, 800 mg/l spray, three weeks after treatment, read-out: Percent Bud Inhibition Top Two Nodes): 100%
inhibition at 400 µg/mL [1, 5]: 100%
inhibition at 800 µg/mL [1, 6]: 100%
inhibition at 1600 µg/mL [1, 7]: 100%
inhibition at 200 µg/mL ([1]; 1008 h, Table 2, 200 mg/l spray, six weeks after treatment, read-out: Percent Bud Inhibition Top Two Nodes): 100%
inhibition at 400 µg/mL ([1]; 1008 h, Table 2, 400 mg/l spray, six weeks after treatment, read-out: Percent Bud Inhibition Top Two Nodes): 100%
inhibition at 800 µg/mL ([1]; 1008 h, Table 2, 800 mg/l spray, six weeks after treatment, read-out: Percent Bud Inhibition Top Two Nodes): 100%
inhibition at 400 µg/mL [1, 8]: 100%
inhibition at 800 µg/mL [1, 9]: 100%
inhibition at 1600 µg/mL [1, 10]: 100%
Mean # of Nodes with Secondary Suckers [1, 11]: 2.5
Mean Sucker Length (cm) [1, 11]: 30.8 cm
Mean # of Nodes with Secondary Suckers [1, 12]: 1.5
Mean Sucker Length (cm) [1, 12]: 9.6 cm
Mean # of Nodes with Secondary Suckers [1, 13]: 0.5
Mean Sucker Length (cm) [1, 13]: 10.0 cm
Number of Secondary Suckers (axillary buds at lower nodes) [1, 14]: 2.3
Total Sucker Length [1, 14]: 24 cm
Number of Usable Leaves [1, 15]: 6.7
Number of Secondary Suckers (axillary buds at lower nodes) [1, 16]: 1.3
Total Sucker Length [1, 16]: 7 cm
Number of Usable Leaves [1, 17]: 6.7
Number of Secondary Suckers (axillary buds at lower nodes) [1, 18]: 0
Total Sucker Length [1, 18]: 0 cm
Number of Usable Leaves [1, 19]: 6.3
inhibition at 200 µg/mL ([2]; 504 h, Table 2, 200 mg/l spray, three weeks after treatment): 95%
inhibition at 400 µg/mL ([2]; 504 h, Table 2, 400 mg/l spray, three weeks after treatment): 93%
inhibition at 800 µg/mL ([2]; 504 h, Table 2, 800 mg/l spray, three weeks after treatment): 95%
inhibition at 200 µg/mL ([2]; 1008 h, Table 2, 200 mg/l spray, six weeks after treatment): 86.3%
inhibition at 400 µg/mL ([2]; 1008 h, Table 2, 400 mg/l spray, six weeks after treatment): 96.9%
inhibition at 800 µg/mL ([2]; 1008 h, Table 2, 800 mg/l spray, six weeks after treatment): 96.8%
Mean # of Nodes with Secondary Suckers [2, 11]: 4.0
Mean Sucker Length (cm) [2, 11]: 24.0 cm
Mean # of Nodes with Secondary Suckers [2, 12]: 2.6
Mean Sucker Length (cm) [2, 12]: 45.3 cm
Mean # of Nodes with Secondary Suckers [2, 13]: 2.3
Mean Sucker Length (cm) [2, 13]: 17.4 cm
inhibition at 400 µg/mL ([3]; 504 h, Soil Drench (30 ml/pot), 400 mg/l, three weeks after treatment): 100%
inhibition at 400 µg/mL ([3]; 1008 h, Soil Drench (30 ml/pot), 400 mg/l, six weeks after treatment): 100%
Sucker control when applied as a soil drench (systemic action), in words [3]: highly effective
Observation on suckers at basal nodes (footnote a) ([4]; Foliar Paint, 400 mg/l, six weeks after treatment): some suckers appearing at basal nodes
inhibition at 400 µg/mL ([4]; 504 h, Foliar Paint (Leaves Only), 400 mg/l, three weeks after treatment): 98%
inhibition at 400 µg/mL ([4]; 1008 h, Foliar Paint (Leaves Only), 400 mg/l, six weeks after treatment): 99%
Sucker control when applied only to the leaves (systemic action), in words [4]: highly effective

CCCC(NOC/C=C/Cl)=C1C(=O)CC(CC(C)SCC)CC1=O (stereo not drawn) [Compound C-1, 2-[1-(3-trans-chloroallyloxyamino)butylidene]-5-(2-ethylthio-propyl)-cyclohexane-1,3-dione]
inhibition at 400 µg/mL [1, 5]: 0%
inhibition at 800 µg/mL [1, 6]: 0%
inhibition at 1600 µg/mL [1, 7]: 7%
inhibition at 400 µg/mL [1, 8]: 0%
inhibition at 800 µg/mL [1, 9]: 0%
inhibition at 1600 µg/mL [1, 10]: 0%
Number of Secondary Suckers (axillary buds at lower nodes) [1, 14]: 0
Total Sucker Length [1, 14]: 0 cm
Number of Usable Leaves [1, 15]: 7.3
Number of Secondary Suckers (axillary buds at lower nodes) [1, 16]: 0
Total Sucker Length [1, 16]: 0 cm
Number of Usable Leaves [1, 17]: 7.7
Number of Secondary Suckers (axillary buds at lower nodes) [1, 18]: 0
Total Sucker Length [1, 18]: 0 cm
Number of Usable Leaves [1, 19]: 6.0

O=c1ccc(=O)[nH][nH]1 [Compound C-2, maleic hydrazide]
inhibition at 200 µg/mL [1, 20]: 10%
inhibition at 400 µg/mL [1, 20]: 88%
inhibition at 800 µg/mL [1, 20]: 93%
inhibition at 200 µg/mL [1, 21]: 31.1%
inhibition at 400 µg/mL [1, 21]: 100%
inhibition at 800 µg/mL [1, 21]: 100%
Mean # of Nodes with Secondary Suckers [1, 11]: 0
Mean Sucker Length (cm) [1, 11]: 0 cm
Mean # of Nodes with Secondary Suckers [1, 12]: 1.5
Mean Sucker Length (cm) [1, 12]: 51.0 cm
Mean # of Nodes with Secondary Suckers [1, 13]: 2.5
Mean Sucker Length (cm) [1, 13]: 31.0 cm
inhibition at 200 µg/mL ([2]; 504 h): 0%
inhibition at 400 µg/mL ([2]; 504 h): 23%
inhibition at 800 µg/mL ([2]; 504 h): 95%
inhibition at 200 µg/mL ([2]; 1008 h): 12.7%
inhibition at 400 µg/mL ([2]; 1008 h): 54.1%
inhibition at 800 µg/mL ([2]; 1008 h): 100%
Mean # of Nodes with Secondary Suckers [2, 11]: 0.3
Mean Sucker Length (cm) [2, 11]: 3.0 cm
Mean # of Nodes with Secondary Suckers [2, 12]: 1.3
Mean Sucker Length (cm) [2, 12]: 76.8 cm
Mean # of Nodes with Secondary Suckers [2, 13]: 5.3
Mean Sucker Length (cm) [2, 13]: 25.8 cm
inhibition at 400 µg/mL ([3]; soil, 504 h): 79%
inhibition at 400 µg/mL ([3]; soil, 1008 h): 84%
Observation on new growth (footnote b) [3, 22]: new growth deformedstrap shaped leaves
Observation on suckers at basal nodes (footnote a) [3, 22]: some suckers appearing at basal nodes
Sucker control when applied as a soil drench (systemic action), in words [3]: operates sytemically
inhibition at 400 µg/mL ([4]; foliar, 504 h): 15%
inhibition at 400 µg/mL ([4]; foliar, 1008 h): 0%
Sucker control when applied only to the leaves (systemic action), in words [4]: does not translocate effectively

CCC(C)Nc1c([N+](=O)[O-])cc(C(C)(C)C)cc1[N+](=O)[O-] (stereo not shown) [Compound C-3, 4-(1,1-dimethylethyl)-N--(1-methyl-propyl)-2,6-dinitrobenzenamine]
inhibition at 400 µg/mL ([3]; soil, 1008 h): 27%
Sucker control when applied as a soil drench (systemic action), in words [3]: ineffective
inhibition at 400 µg/mL ([4]; foliar, 1008 h): 3%
Sucker control when applied only to the leaves (systemic action), in words [4]: ineffective
